{"source": "patent EP0374249A1", "about": "“METHOD OF STERILIZING PLANT POLLEN” (VSESOJUZNY NAUCHNO-ISSLEDOVATELSKY INST. SELSKOKHOZYAISTV. …, priority 1988, dated 1989)", "key": {"[1]": {"test_system": "tetraploidem Roggen Sorte Ukrainskaya tetra", "assay": "Field test of pollen sterilisation, tetraploid rye Ukrainskaya tetra", "assay_type": "in vivo", "conditions": "1% aqueous emulsion, 6 kg/ha", "excerpt": "Jedes Sterilisationsmittel wurde mindestens 5 Jahre lang geprüft.\n(§1) Die Entwicklung der Perioden der Organogenese wird zytologischüberwacht. Die Behandlung von Pflanzen mit dem Sterilisationsmittel erfolgt am Anfang der fünften Periode der Organogenese nach Kupermann.\n(§2) Mit dem Ahrenschiebe verwirklicht man die Isolierung von Hauptähren und anderen Stockwerken in Pergamentbeuteln. Bei Weizen und Tritikale werden Einzelisolatoren verwendet. Bei Roggen schliesst man je Ähre 5 bis 7 verschiedene nebeneinander befindliche Pflanzen unter einen gemeinsamen Isolator ein. Bei Hirse wird jede Rispe getrennt isoliert. Der Sterilitätsprozentsatz (X) für Weizen, Roggen, Tritikale und Hirse wird nach folgender Formel [formula] ermittelt.\n(§3) Die Kornzahl in nicht isolierten ähren von Kontrollpflanzen wird bedingt für 100% Ansetzen bei freier Bestäubung angenommen.\n(§4) Um zuverlässige Angaben zu erhalten, verwendet man 20 bis 25 Isolatoren jeder Wiederholung für Weisen und Tritikale, 10 bis 15 Gruppenisolatoren jeder Wiederholung für Roggen und Hirse.\nPflanzen von tetraploidem Roggen Sorte Ukrainskaya tetra werden in der V. Periode der Organogenese (nach Kupermann) mit einer 1%igen wässrigen Emulsion von N-(2-Dimethylaminoäthyl)maleaminsäure, N-(3-Dimethyl-aminopropu)maleaminsäure bzw. N-Karbamoylmaleaminsäure behandelt. Die Emulsion enthält 0,1 Masse% Kaliumalkylbenzolsulfonat mit 12 bis 14 Kohlenstoffatomen und 0,01 Masse% Dodezylsulfat. Der Verbrauch an Präparat beträgt 6 kg/ha. Als Kontrolle dienen Pflanzen, behandelt mit einem Verdünner ohne Sterilisationsmittel. Die Prüfergebnisse sind in der Tabelle 6 dargestellt."}, "[2]": {"test_system": "diploidem Roggen Sorte Voskhod 2", "assay": "Field test of pollen sterilisation, diploid rye Voskhod 2", "assay_type": "in vivo", "conditions": "1% aqueous emulsion, 10 kg/ha", "text": "Die Emulsion enthält 0,1 Masse% Kalziumalkylbenzolsulfonat und 0,01 Masse% Dimethylformamid. Der Verbrauch an Präparat beträgt 10 kg/ha. Als Kontrolle dienen Pflanzen, behandelt mit einem Lösungsmittel ohne Sterilisationsmittel."}, "[3]": {"test_system": "Hirse Sorte Mironovskoe 94", "assay": "Field test of pollen sterilisation, millet Mironovskoe 94", "assay_type": "in vivo", "conditions": "1% aqueous emulsion, 8 kg/ha", "excerpt": "(§5) Die gametozide Aktivität der erfindungsgemässen Sterilisationsmittel war im Feldversuch in verschiedenen Bodenklimatischen Zonen mit Teilstücken von 10 m^2 Grösse in drei- bis viermaliger Wiederholung nachgewiesen. Jedes Sterilisationsmittel wurde mindestens 5 Jahre lang geprüft.\nas §1, §2, §3, §4\nPflanzen der Hirse Sorte Mironovskoe 94 werden in der V. Periode der Organogenese (nach Kupermann) mit einer 1%igen wässrigen Emulsion von N-(2-Dimethylaminoäthyl)maleaminsäure, N-(3-Dimethylaminopropyl)maleaminsäure, N-Äthylmaleaminsäure, N-(2-Hydroxyäthyl)maleaminsäure, N-Karbamoylmaleaminsäure behandelt. Die Emulsion enthält 0,01 Masse% Dimethylaulfoxid und 0,1 Masse% Kalziumalkylbenzolsulfonat mit 12 bis 14 Kohlenstoffatomen. Der Verbrauch an Präparat beträgt 8 kg/ha. Als Kontrolle dienen Pflanzen, behandelt mit einem Verdünner ohne Sterilisationsmittel. Die Prüfergebnisse sind in der Tabelle 12 dargestellt. […] Periode der Organogenese erhalten."}, "[4]": {"test_system": "Winterweizens Sorte Bezostaya 1", "assay": "Field test of pollen sterilisation, winter wheat Bezostaya 1", "assay_type": "in vivo, Winterweizen", "conditions": "2% aqueous emulsion, 16 kg/ha", "text": "Pflanzen des Winterweizens Sorte Bezostaya 1 werden in der V. Periode der Organogenese durch Zerstäubung einer 2%igen wässrigen Emulsion von N-(2-Dimethylaminoäthyl)-maleaminsäure, N-(3-Dimethylaminopropyl)-maleaminsäure, N-Äthylmaleaminsäure, N-(2-Hydroxyäthyl)-maleaminsäure, N-Karbamoylmaleaminsäure mit Hilfe deiner Rückspritze behandelt. Die Emulsion enthält 0,1 Masse% Kalziumalkylbenzolsulfonat mit 12 bis 14 Kohlenstoffatomen. Als Adjuvans führt man in die Emulsion 0,01 Masse% Tetrahydrofuran ein.\nDer Verbrauch an Präparat beträgt 16 kg/ha. Als Kontrolle dienen Pflanzen, behandelt mit einem Verdünner ohne Sterilisationsmitteln."}, "[5]": {"test_system": "Winterweizens Sorte Mir.onovskaya 808", "assay": "Field test of pollen sterilisation (gametocidal activity), winter wheat Mironovskaya 808", "assay_type": "in vivo, Winterweizen", "conditions": "2% aqueous emulsion, 20 kg/ha"}, "[6]": {"assay": "Toxicity test in animals (LD50)", "conditions": "in vivo; animal test, per kg animal weight; species and route not given", "excerpt": "Alle erfindungsgemässen N-substituierten Maleaminsäuren, welche als Sterilisationsmittel zur Verwendung kommen, waren auf die Toxizität im Tierversuch geprüft. Die Prüfergebnisse haben ergeben, dass die angegebenen Verbindungen von schwacher oder mittlerer Toxizität sind."}, "[7]": {"test_system": "Sommerweizens Sorte Botanicheskaya 4", "assay": "Field test of pollen sterilisation, spring wheat Botanicheskaya 4", "assay_type": "in vivo, Sommerweizen", "conditions": "1% aqueous emulsion, 6 kg/ha", "text": "Pflanzen des Sommerweizens Sorte Botanicheskaya 4 werden in der V. Periode der Organogenese (nach Kupermann) mit einer 1%igen Wässrigen Emulsion von N-(2-Dimethyl-aminoäthyl)-maleaminsäure, N-(3-Dimethylaminopropyl)-maleaminsäure, N-Äthylmaleaminsäure, N-(2-Hydroxyäthyl)-maleaminsäure bzw. N-Karbamoylmaleaminsäure behandelt. Die Emulsion enthält 0,5 Masse% Kalziumalkylbenzolsulfonat mit 12 bis 14 Kohlenstoffatomen und 0,01 Masse% Dimethylsulfoxid als Adjuvans. Der Verbrauch an Präparat beträgt 6 kg/ha. Als Kontrolle dienen Pflanzen, behandelt mit einem Verdünner ohne Sterilisationsmittel."}, "[8]": {"test_system": "diploidem Roggen Sorte Chulpan", "assay": "Field test of pollen sterilisation, diploid rye Chulpan", "assay_type": "in vivo", "conditions": "1% aqueous emulsion, 8 kg/ha", "text": "(§6) Mit dem Ahrenschiebe verwirklicht man die Isolierung von Hauptähren und anderen Stockwerken in Pergamentbeuteln. […] Bei Roggen schliesst man je Ähre 5 bis 7 verschiedene nebeneinander befindliche Pflanzen unter einen gemeinsamen Isolator ein. […] Der Sterilitätsprozentsatz (X) für Weizen, Roggen, Tritikale und Hirse wird nach folgender Formel [formula] ermittelt.\nDie Emulsion enthält 0,01 Masse% Tetranydrofuran und 0,1 Masse% Kalziumalkylbenzolsulfonat mit 12 bis 14 Kohlenstoffatomen. Der Verbrauch an Präparat beträgt 8 kg/ha. Als Kontrolle dienen Pflanzen, behandelt mit einem Verdünner ohne Sterilisationsmittel."}, "[9]": {"test_system": "tetraploidem Roggen Sorte Belta", "assay": "Field test of pollen sterilisation, tetraploid rye Belta", "assay_type": "in vivo", "conditions": "1% aqueous emulsion, 10 kg/ha", "excerpt": "as §5, §1, §2, §3, §4\nPflanzen von tetraploidem Roggen Sorte Belta werden in der V. Periode der Organogenese (nach Kupermann) mit einer 1%igen wässrigen Emulsion von N-(2-Dimethylamino- .äthyl)maleaminsäure, N-(3-Dimethylaminopropyl)maleaminsäure, N-Äthylmaleaminsäure, N-(2-Hydroxyäthyl)maleaminsäure bzw. Karbamoylmaleaminsäure behandelt. Die Emulsion enthält 0,5 Masse% Kalziumalkylbenzolsulfonat mit 12 bis 14 Kohlenstoffatomen und 0,01 Masso% Tetrahydrofuran. Der Verbrauch an Präparat beträgt 10 kg/ha. Die Prüfergebnisse sind in der Tabelle 5 dargestellt. […] Periode der Organogenese erhalten."}, "[10]": {"test_system": "diploidem Roggen Sorte Talovskaya 12", "assay": "Field test of pollen sterilisation, diploid rye Talovskaya 12", "assay_type": "in vivo", "conditions": "1% aqueous emulsion, 6 kg/ha", "text": "as §6\nPflanzen von diploidem Roggen Sorte Talovskaya 12 werden in der V. Periode der Organogenese (nach Kupermann) mit einer 1%igen wässrigen Emulsion von N-(2-Di- methylaminoäthyl)-maleaminsäure, N-(3-Dimethylaminopropyl)-maleaminsäure, N-Äthylmaleaminsäure, N-(2-Hydroxyäthyl)maleaminsäure, N-Karbamoylmaleaminsäure behandelt. Die Emulsion enthält 0,01 Masse% Dodezylsulfat und 0,1 Masse% Kalziumalkylbenzolsulfonat mit 12 bis _14 Kohlenstoffatomen. Der Verbrauch an Präparat beträgt 6 kg/ha. Als Kontrolle dienen Pflanzen, behandelt mit einem Verdünner ohne Sterilisationsmittel."}, "[11]": {"test_system": "Sommerweizens Sorte Moskovskaya 35", "assay": "Field test of pollen sterilisation, spring wheat Moskovskaya 35", "assay_type": "in vivo, Sommerweizen", "conditions": "1% aqueous emulsion, 10 kg/ha", "text": "Pflanzen des Sommerweizens Sorte Moskovskaya 35 werden in V. Periode der Organogenese (nach Kupermann) mit einer 1%igen wässrigen Emulsion von N-(2-Dimethyl-aminoäthyl)-maleaminsäure, N-(3-Dimethylaminopropyl)-maleaminsäure, N-Äthylmaleaminsäure, N-(2-Hydroxyäthyl) maleaminsäure bzw. N-Karbamoylmaleaminsäure behandelt. Die Emulsion enthält 0,5 Masse% Kalziumalkylbenzolsulfonat mit 12 bis 14 Kohlenstoffatomen als Emulgierungsmittel und 0,01 Masse% Dimethylformamid als Adjuvans. Der Verbrauch an Präparat beträgt 10 kg/ha. Als Kontrolle dienen Pflanzen, behandelt mit einem Verdünner ohne Sterilisationsmittel."}, "[12]": {"conditions": "period V of organogenesis, free pollination"}, "[13]": {"conditions": "period V of organogenesis, isolated ears"}, "[14]": {"conditions": "period V, non-isolated control ears = 100%"}}}
{"smiles": "CN(C)CCNC(=O)/C=C\\C(=O)O", "note": "[Beispiel 1, N-(2-Dimethylaminoäthyl)-maleaminsäure]", "values": [{"measurement": "Prozentsatz der Sterilität", "setting": "[1]; period V of organogenesis", "result": "100,0%"}, {"measurement": "Anzahl von Körnern der Ähre bei freier Bestäubung", "setting": "[1]; [12]", "result": "40,1"}, {"measurement": "Anzahl von Körnern der Ähre im Isolator", "setting": "[1]; [13]", "result": "0,0"}, {"measurement": "Prozentsatz des Ansetzens von Körnern bei freier Bestäubung", "setting": "[1]; [14]", "result": "89,5%"}, {"measurement": "Prozentsatz der Sterilität", "setting": "[2]; period V of organogenesis", "result": "100,0%"}, {"measurement": "Anzahl von Körnern der Ähre bei freier Bestäubung", "setting": "[2]; [12]", "result": "51,2"}, {"measurement": "Anzahl von Körnern der Ähre im Isolator", "setting": "[2]; [13]", "result": "0,0"}, {"measurement": "Prozentsatz des Ansetzens von Körnern bei freier Bestäubung", "setting": "[2]; [14]", "result": "92,7%"}, {"measurement": "Prozentsatz der Sterilität", "setting": "[3]; period V of organogenesis", "result": "100,0%"}, {"measurement": "Anzahl von Körnern der Rispe bei freier Bestäubung", "setting": "[3]; [12]", "result": "224,8"}, {"measurement": "Anzahl von Körnern der Rispe im Isolator", "setting": "[3]; period V of organogenesis, isolated panicles", "result": "0,0"}, {"measurement": "Prozentsatz des Ansetzens von Körnern bei freier Bestäubung", "setting": "[3]; period V, non-isolated control = 100%", "result": "98,9%"}, {"measurement": "Prozentsatz der Sterilität", "setting": "[4]; period V of organogenesis", "result": "100,0%"}, {"measurement": "Anzahl von Körnern der Ähre bei freier Bestäubung", "setting": "[4]; [12]", "result": "39,7"}, {"measurement": "Anzahl von Körnern der Ähre im Isolator", "setting": "[4]; [13]", "result": "0,0"}, {"measurement": "Prozentsatz des Ansetzens von Körnern bei breier Bestäubung", "setting": "[4]; [14]", "result": "92,5%"}, {"measurement": "Prozentsatz der Sterilität", "setting": "[5]; period V of organogenesis", "result": "99,8%"}, {"measurement": "Anzahl von Körnern der Ähre bei freier Bestäubung", "setting": "[5]; [12]", "result": "38,3"}, {"measurement": "Anzahl von Körnern der Ähre im Isolator", "setting": "[5]; [13]", "result": "0,1"}, {"measurement": "Prozentsatz des Ansetzens von Körnern bei freier Bestäubung", "setting": "[5]; [14]", "result": "89,9%"}, {"measurement": "LD50", "setting": "[6]", "result": 2500, "unit": "mg/kg"}, {"measurement": "Prozentsatz der Sterilität", "setting": "[7]; period V of organogenesis", "result": "97,5%"}, {"measurement": "Anzahl von Körnern der Ähre bei freier Bestäubung", "setting": "[7]; [12]", "result": "29,8"}, {"measurement": "Anzahl von Körnern der Ähre im Isolator", "setting": "[7]; [13]", "result": "0,7"}, {"measurement": "Prozentsatz des Ansetzens von Körnern bei freier Bestäubung", "setting": "[7]; [14]", "result": "99,0%"}, {"measurement": "Prozentsatz der Sterilität", "setting": "[8]; period V of organogenesis", "result": "99,6%"}, {"measurement": "Anzahl von Körnern der Ähre bei freier Bestäubung", "setting": "[8]; [12]", "result": "50,2"}, {"measurement": "Anzahl von Körnern der Ähre im Isolator", "setting": "[8]; [13]", "result": "0,2"}, {"measurement": "Prozentsatz des Ansetzens von Körnern bei freier Bestäubung", "setting": "[8]; [14]", "result": "88,4%"}, {"measurement": "Prozentsatz der Sterilität", "setting": "[9]; period V of organogenesis", "result": "100,0%"}, {"measurement": "Anzahl von Körnern der Ähre bei freier Bestäubung", "setting": "[9]; [12]", "result": "48,2"}, {"measurement": "Anzahl von Körnern der Ähre im Isolator", "setting": "[9]; [13]", "result": "0,0"}, {"measurement": "Prozentsatz des Ansetzens von Körnern bei freier Bestäubung", "setting": "[9]; [14]", "result": "88,2%"}, {"measurement": "Prozentsatz der Sterilität", "setting": "[10]; period V of organogenesis", "result": "99,5%"}, {"measurement": "Anzahl von Körnern der Ähre bei freier Bestäubung", "setting": "[10]; [12]", "result": "51,2"}, {"measurement": "Anzahl von Körnern der Ähre im Isolator", "setting": "[10]; [13]", "result": "0,2"}, {"measurement": "Prozentsatz des Ansetzens von Körnern bei freier Bestäubung", "setting": "[10]; [14]", "result": "91,1%"}, {"measurement": "Prozentsatz der Sterilität", "setting": "[11]; period V of organogenesis", "result": "99,3%"}, {"measurement": "Anzahl von Körnern der Ähre bei freier Bestäubung", "setting": "[11]; [12]", "result": "26,8"}, {"measurement": "Anzahl von Körnern der Ähre im Isolator", "setting": "[11]; [13]", "result": "0,2"}, {"measurement": "Prozentsatz des Ansetzens von Körnern bei freier Bestäubung", "setting": "[11]; [14]", "result": "97,4%"}]}
